Test results taken from patent publication US9249148B2, “Tris(hetero)arylpyrazoles and use thereof” (AICURIS GMBH & CO. KG, priority 2012, dated 2016).

Tests used:
Format in all cases: cell-based
HIV-1NL4-3 K103N-Y181C = assay: Luminescence Reduction Assay, luciferase reporter virus with resistance mutations in MT4 cells; conditions: Human immunodeficiency virus 1, MT4, read-out: EC50 (μM) MT4 cells HIV-1NL4-3 K103N-Y181C 2% FBS
Text: (§1) For this assay, HIV-1NL4-3 reporter viruses are used which carry the luciferase164 gene (lu164) in place of the nef gene. The viruses are generated by transfection of 293T cells with the corresponding proviral pNL4-3 plasmid (Lipofectamine Reagent, Invitrogen, Karlsruhe, Germany). Starting from the proviral plasmid DNA, viruses with defined resistance mutations (single or combined) are produced in the reverse transcriptase gene using the “QuikChange II XL Site-Directed Mutagenesis Kit” (Stratagene, Cedar Creek, Tex., USA). Resistance mutations include, among others: L74V, A98G, A98S, L100I, K101E, K103N, V106A, V106I, V106M, V108I, V108A, E138K, V179I, V179D, V179E, Y181C, Y181I, Y188L, G190A, G1905, H221Y, P225H, F227C, F227L, F227V, M230I, M230L, L234I, P236L, N348I, T369A, T369I, T369V. MT4 cells infected with these reporter viruses (NIH AIDS Research and Reference Reagent Program) secrete luciferase into the medium, which enables the luminometric quantification of the virus replication.
(§2) For starting a 96-well MTP, 3 million MT4 cells are pelleted, suspended in 1 ml RPMI 1640 medium without phenol red (Invitrogen, Karlsruhe, Germany)/10% FBS/2 mM L-glutamine/1% Pen/Strep (Invitrogen, Karlsruhe, Germany), and incubated for 2 hours at 37° C. with a suitable quantity of the relevant HIV-1NL4-3 reporter virus (pellet infection). Non-adsorbed viruses are then washed out, and the infected cells are pelleted again and suspended in 8 ml RPMI 1640 medium without phenol red/2% or 10% FBS/2 mM L-glutamine/1% Pen/Strep. From this, 90 μl per well is pipetted into a white 96-well MTP to 10 μl of test substance at a suitable level of dilution. In order to avoid edge effects, the edge wells of the MTP are not used for substance dilutions. The second vertical row of the MTP contains only infected cells (virus control) and the eleventh vertical row only non-infected cells (cell control), each in RPMI 1640 medium without phenol red/2% or 10% FBS/2 mM L-glutamine/1% Pen/Strep. The remaining wells of the MTP contain the compounds in accordance with the invention in various concentrations, starting from the third vertical row, from which the test substances are diluted in 3-step sequences up to the tenth vertical row by a factor of 3^7. The test substances are dissolved in DMSO; the final DMSO concentration in the test formulation is 1%.

HIV-1NL4-3 wildtype = assay: Luminescence Reduction Assay, luciferase reporter virus in MT4 cells; conditions: Human immunodeficiency virus 1, MT4, read-out: EC50 (μM) MT4 cells HIV-1NL4-3 wildtype 2% FBS
Text: as §1, §2

HIV-1LAI wildtype = assay: alamarBlue Viability Assay with HIV-1LAI-infected MT4 cells; conditions: Human immunodeficiency virus 1, 10% FBS
Protocol: For starting a 96-well MTP, 3 million PBLs are pelleted, suspended in 1 ml RPMI 1640 medium/10% FBS/2 mM L-glutamine/1% Pen/Strep and incubated for 2 hours at 37° C. with a suitable quantity of the relevant HIV-1LAI (NIH AIDS Research & Reference Reagent Program, Germantown, USA) (pellet infection). Non-adsorbed viruses are then washed out, and the infected cells pelleted again and suspended in 18 ml RPMI 1640 medium/10% FBS/2 mM L-glutamine/1% Pen/Strep/Interleukin-2 (40 U/ml). From this, 180 μl per well is pipetted into a 96-well MTP to 20 μl of test substance at a suitable level of dilution. Alternatively, the HIV is added after preparation of the substance dilutes in the MTP together with the cells, and is not washed out (supernatant infection). In order to avoid edge effects, the edge wells of the MTP are not used for substance dilutions. The second vertical row of the MTP contains only infected cells (virus control) and the eleventh vertical row only non-infected cells (cell control), each in RPMI 1640 medium/10% FBS/2 mM L-glutamine/1% Pen/Strep/Interleukin-2 (40 U/ml). The remaining wells of the MTP contain the compounds in accordance with the invention in various concentrations, starting from the third vertical row, from which the test substances are diluted in 3-step sequences up to the tenth vertical row by a factor of 3^7. The test substances are dissolved in DMSO; the final DMSO concentration in the test preparation is 1%. The test samples are incubated for 5 days at 37° C./5% CO2. After 5 to 7 days, 50 μl of cell-free supernatant is removed from each well to determine its p24 content using p24 ELISA (HIV-1 p24CA Antigen Capture Assay Kit, NCI-Frederick Cancer Research and Development Center, Frederick, USA). From the resulting values of the photometric analysis (450/620 nm), the EC50 values of the test substances are determined from the resulting dose-response curves using the Prism4 software (GraphPad, San Diego, Calif.) as the concentration of treated infected cells, where the p24 quantity is 50% of the untreated infected cells.
Alternatively, MT4 cells are used in place of PBLs for testing the test substances. HIV-1LAI-infected MT4 cells (MOI 0.01, supernatant infection) are incubated in accordance with the procedure described above in RPMI 1640 medium using 2% or 10% FKS/2 mM L-glutamine/1% Pen/Strep in the presence of the test substances for 5 days at 37° C./5% CO2 (10 μl diluted substance and 90 μl cells/virus per well). 10 μl alamarBlue (Invitrogen, Karlsruhe, Germany) is then added per well and the MTPs are incubated for 3 hours at 37° C. before fluorimetric evaluation is performed (544/590 nm). Using quattroWorkflow software (Quattroresearch, Martinsried, Germany), the EC50 values of the test substances are determined from the resulting dose-response curves as the concentration of treated infected cells in which the fluorescence is 50% of that of the untreated, non-infected cells.

Structure (SMILES)	EC50 (HIV-1NL4-3 K103N-Y181C) [µM]	EC50 (HIV-1NL4-3 wildtype) [µM]	EC50 (HIV-1LAI wildtype) [µM]
O=C1NCc2c1ccnc2-c1cc(-c2cc(F)cc(Cl)c2)n(-c2ccc(F)c(Cl)c2)n1 [Example 1, 4-[1-(3-chloro-4-fluorophenyl)-5-(3-chloro-5-fluorophenyl)-1H-pyrazole-3-yl]-2,3-dihydro-1H-pyrrolo[3,4-c]pyridine-1-one]	0.004	0.0015	0.0097
O=C1NCc2c1ccnc2-c1cc(-c2cc(F)cc(Cl)c2)n(-c2cccnc2)n1 [Example 2, 4-[5-(3-chloro-5-fluorophenyl)-1-(pyridine-3-yl)-1H-pyrazole-3-yl]-2,3-dihydro-1H-pyrrolo[3,4-c]pyridine-1-one]	0.0132	0.0013	0.0063
O=C1NCc2c1cccc2-c1cc(-c2cc(F)cc(Cl)c2)n(-c2ccc(F)c(Cl)c2)n1 [Example 3, 4-[1-(3-chloro-4-fluorophenyl)-5-(3-chloro-5-fluorophenyl)-1H-pyrazole-3-yl]-2,3-dihydro-1H-isoindole-1-one]	0.0289	0.006	0.0586
O=C1NCc2c1cccc2-c1cc(-c2cc(F)cc(Cl)c2)n(-c2cccnc2)n1 [Example 4, 4-[5-(3-chloro-5-fluorophenyl)-1-(pyridine-3-yl)-1H-pyrazole-3-yl]-2,3-dihydro-1H-isoindole-1-one]	0.042	0.0055	0.0155
O=C1NCc2c1ccnc2-c1cc(-c2cc(F)cc(OC(F)(F)F)c2)n(-c2ccc(F)c(Cl)c2)n1 [Example 5, 4-{1-(3-chloro-4-fluorophenyl)-5-[3-fluoro-5-(trifluoromethoxy)phenyl]-1H-pyrazole-3-yl}-2,3-dihydro-1H-pyrrolo[3,4-c]pyridine-1-one]	0.0117	0.011	0.15
O=C1NCc2c1ccnc2-c1cc(-c2cc(F)cc(OC(F)(F)F)c2)n(-c2cccnc2)n1 [Example 6, 4-{5-[3-fluoro-5-(trifluoromethoxy)phenyl]-1-(pyridine-3-yl)-1H-pyrazole-3-yl}-2,3-dihydro-1H-pyrrolo[3,4-c]pyridine-1-one]	0.0083	0.0024	0.0137
O=C1NCc2c1cccc2-c1cc(-c2cc(F)cc(OC(F)(F)F)c2)n(-c2cccnc2)n1 [Example 7, 4-{5-[3-fluoro-5-(trifluoromethoxy)phenyl]-1-(pyridine-3-yl)-1H-pyrazole-3-yl}-2,3-dihydro-1H-isoindole-1-one]	0.0206	0.0107	0.0512
O=C1NC(=O)c2c1cccc2-c1cc(-c2cc(F)cc(OC(F)(F)F)c2)n(-c2cccnc2)n1 [Example 8, 4-{5-[3-fluoro-5-(trifluoromethoxy)phenyl]-1-(pyridine-3-yl)-1H-pyrazole-3-yl}-1H-isoindole-1,3(2H)-dione]	> 3.3	0.643	> 3.3
O=C1NCc2c1ccnc2-c1cc(-c2cc(Cl)cc(OC(F)(F)F)c2)n(-c2ccc(F)c(Cl)c2)n1 [Example 9, 4-{1-(3-chloro-4-fluorophenyl)-5-[3-chloro-5-(trifluoromethoxy)phenyl]-1H-pyrazole-3-yl}-2,3-dihydro-1H-pyrrolo[3,4-c]pyridine-1-one]	0.0176	0.0128	0.0768
O=C1NCc2c1ccnc2-c1cc(-c2cc(Cl)cc(OC(F)(F)F)c2)n(-c2cccnc2)n1 [Example 10, 4-{5-[3-chloro-5-(trifluoromethoxy)phenyl]-1-(pyridine-3-yl)-1H-pyrazole-3-yl}-2,3-dihydro-1H-pyrrolo[3,4-c]pyridine-1-one]	0.0027	0.0012	0.008
O=C1NCc2c1cccc2-c1cc(-c2cc(Cl)cc(OC(F)(F)F)c2)n(-c2cccnc2)n1 [Example 11, 4-{5-[3-chloro-5-(trifluoromethoxy)phenyl]-1-(pyridine-3-yl)-1H-pyrazole-3-yl}-2,3-dihydro-1H-isoindole-1-one]	0.024	0.0091	0.0663
